Experimental data published in paper PMC13198257, “An aerosolized dual-action autotaxin inhibitor-PPARγ agonist for the treatment of pulmonary fibrosis” (Cell Reports Medicine, 2026).

Tested on: lung gene expression
Assay: RNA sequencing of lung tissue (BLM/EL244 vs BLM)
Format: in vivo, mouse
Settings: lung tissue, BLM/EL244 vs BLM
Method: RNA quality was assessed using an Agilent TapeStation 4150 with the High Sensitivity […] ScreenTape (Agilent), according to the manufacturer’s protocols. For library preparation, the QuantSeq 3’mRNA-Seq Library Prep Kit (Lexogen) was used according to manufacturer’s instructions. Briefly, 500 ng of RNA from each sample was used for first-strand synthesis, followed by RNA template removal, and second-strand synthesis initiated by random primers. In-line barcodes were introduced at this step, and this was followed by magnetic bead-based purification. The resulting libraries were amplified for 15 cycles and re-purified, with quantity and quality assessed on a Qubit 4 Fluorometer with the Invitrogen Qubit dsDNA HS Assay and an Agilent Tapestation 4150 with the High Sensitivity D1000 assay kit, respectively. The quantified libraries were pooled equimolarly; 50ng of total library mix was used for Adapter Conversion PCR Amplification using the Universal Library Conversion Kit (App-A), Version: V1.0 (MGI Tech Co., Ltd.), according to the manufacturer’s instructions.
The quantity and quality of the purified adapter conversion PCR (AC-PCR) product were evaluated on a Qubit 4 Fluorometer with the Invitrogen Qubit dsDNA HS Assay and on an Agilent Tapestation 4150 with the High Sensitivity D1000 assay kit, respectively. This was followed by DNA denaturation, Single-Strand Circularisation, Enzymatic Digestion, Enzymatic Digestion Product Cleanup and Quality Control steps on 1 pmol of AC-PCR product, according to the Universal Library Conversion Kit (App-A) User Manual (Version: A3).
Finally, 60 fmol of ssCirDNA were used for DNB preparation and sequencing on a DNBSEQ-G400 platform at the BSRC Alexander Fleming Genomics Facility, using a G400 App-A FCS SE100 High-throughput Sequencing Set (MGI Tech Co., Ltd.), according to the manufacturer’s instructions.
Alignment of the FASTQ files was performed against the mouse genome build mm10 using a custom Bash script.[143] Read counting on the 3′ UTRs and differential expression analysis were conducted using the metaseqR2 bioconductor package.[144] Genes corresponding to the following biotypes were excluded: polymorphic_pseudogene, processed_transcript, pseudogene, IG_V_pseudogene, misc_RNA, IG_C_gene, IG_J_gene, IG_D_gene, IG_LV_gene, TR_V_gene, TR_V_pseudogene, TEC, and processed_pseudogene. Gene counts were normalized with DESEQ[145] through metaseqR2. Genes with more than 10 counts in at least 50% of the samples were kept for further processing. For differential expression analysis, the PANDORA algorithm[146] was used to estimate a meta p-value integrating the results from the DESEQ, DESEQ2,[147] edgeR,[148] limma,[149] NBPSeq,[150] and NOISeq[151] algorithms. All additional parameters were set to default values.
Pathway enrichment analysis was performed for the Gene Ontology Biological process (BP) and Molecular Function (MF) terms through GeneCodis 4.[152] The volcano plots, scatterplots, Venn diagrams, and dot plots were generated using the ggplot2 Bioconductor package.

In the case of `O=C1NC(=O)C(Cc2ccc(OCCC3CCN(C(=O)OCc4cc(Cl)cc(Cl)c4)CC3)cc2)S1` (centres unmarked) [EL244, 3,5-dichlorobenzyl 4-(2-(4-((2,4-dioxothiazolidin-5-yl)methyl)phenoxy)ethyl)piperidine-1-carboxylate], the “log2 nFC Hells” value is reported as -1.30, the “log2 nFC Il18bp” value is reported as -0.95 and the “log2 nFC Ildr2” value is reported as -1.32. For the same molecule, the “log2 nFC Itm2a” value was -1.25, the “log2 nFC Kcnn4” value was -1.27 and the “log2 nFC Kdelr3” value was -1.25. The “log2 nFC Kif23” value was -1.20, the “log2 nFC Klhdc8a” value was -1.02 and the “log2 nFC Kntc1” value was -1.39. For the same molecule, the “log2 nFC Lair1” value was -0.92, the “log2 nFC Lat2” value was -1.10 and the “log2 nFC Lcn2” value was -0.95. For the same molecule, the “log2 nFC Lgals1” value was -1.12, the “log2 nFC Lgmn” value was -1.09 and the “log2 nFC Lilrb4a” value was -0.89. The “log2 nFC Lmnb1” value was -0.91, the “log2 nFC Loxl2” value was -0.91 and the “log2 nFC Lrg1” value was -0.89. For the same molecule, the “log2 nFC Lum” value was -1.32, the “log2 nFC Mad2l1” value was -0.97 and the “log2 nFC Mafb” value was -0.92. The “log2 nFC Mark1” value was -1.23, the “log2 nFC Mcm5” value was -1.33 and the “log2 nFC Mdk” value was -1.34. The “log2 nFC Mfap5” value was -1.12, the “log2 nFC Mfrp” value was -0.87 and the “log2 nFC Mgp” value was -1.03. For the same molecule, the “log2 nFC Mir692-1” value was -1.18, the “log2 nFC Mmp14” value was -1.31 and the “log2 nFC Ms4a6c” value was -0.91. For the same molecule, the “log2 nFC Ms4a6d” value was -0.93, the “log2 nFC Ncapd2” value was -1.29 and the “log2 nFC Ndnf” value was -0.87. The “log2 nFC Nnat” value was -1.34, the “log2 nFC Nrcam” value was -1.26 and the “log2 nFC Nrep” value was -1.26. The “log2 nFC P2ry6” value was -0.93, the “log2 nFC Paox” value was -0.92 and the “log2 nFC Pcdh7” value was -1.03. The “log2 nFC Pdlim4” value was -1.24, the “log2 nFC Plk4” value was -1.31 and the “log2 nFC Polh” value was -0.87. For the same molecule, the “log2 nFC Ppic” value was -1.10, the “log2 nFC Prdx4” value was -0.94 and the “log2 nFC Psat1” value was -0.98. The “log2 nFC Psrc1” value was -1.26, the “log2 nFC Pth1r” value was -1.40 and the “log2 nFC Racgap1” value was -1.21. The “log2 nFC Rcc1” value was -0.92, the “log2 nFC Rgs4” value was -1.23 and the “log2 nFC Rgs5” value was -1.00. The “log2 nFC Rhof” value was -1.02, the “log2 nFC S100a4” value was -1.26 and the “log2 nFC S100a14” value was -1.28. For the same molecule, the “log2 nFC Scn3b” value was -0.91, the “log2 nFC Serpina3g” value was -1.31 and the “log2 nFC Serpina3n” value was -1.22. The “log2 nFC Serpine1” value was -0.98, the “log2 nFC Serpine2” value was -0.87 and the “log2 nFC Serpinh1” value was -0.87. For the same molecule, the “log2 nFC Sertad4” value was -1.35, the “log2 nFC Sfn” value was -1.19 and the “log2 nFC Sh2b2” value was -1.23. The “log2 nFC Slamf8” value was -1.24, the “log2 nFC Smc2” value was -0.98 and the “log2 nFC Snai1” value was -0.97. For the same molecule, the “log2 nFC Spc24” value was -1.13, the “log2 nFC St8sia6” value was -1.04 and the “log2 nFC Tacc3” value was -1.27. The “log2 nFC Tiam1” value was -1.04, the “log2 nFC Tlr2” value was -1.04 and the “log2 nFC Tnfaip8l1” value was -1.08. The “log2 nFC Tnfrsf11a” value was -1.12, the “log2 nFC Tns4” value was -1.20 and the “log2 nFC Traf4” value was -1.10. For the same molecule, the “log2 nFC Tubb2b” value was -1.19, the “log2 nFC Tyms” value was -1.02 and the “log2 nFC Ulbp1” value was -1.06. For the same molecule, the “log2 nFC Vcan” value was -1.21, the “log2 nFC Wfdc17” value was -1.30 and the “nFC 1500009L16Rik” value was 0.43. The “nFC 2200002D01Rik” value was 0.54, the “nFC AA467197” value was 0.38 and the “nFC Adamts2” value was 0.50. The “nFC Areg” value was 0.49, the “nFC Arhgap11a” value was 0.46 and the “nFC Armcx4” value was 0.40. For the same molecule, the “nFC Asf1b” value was 0.45, the “nFC Bcl2a1b” value was 0.45 and the “nFC Bcl2a1d” value was 0.41. For the same molecule, the “nFC Bub1b” value was 0.44, the “nFC C1qtnf5” value was 0.55 and the “nFC C1qtnf6” value was 0.38. The “nFC Ccdc8” value was 0.46, the “nFC Ccl9” value was 0.39 and the “nFC Ccl17” value was 0.52. For the same molecule, the “nFC Cd68” value was 0.50, the “nFC Cd72” value was 0.50 and the “nFC Cd248” value was 0.42. The “nFC Cd300c2” value was 0.54, the “nFC Cdca2” value was 0.40 and the “nFC Cenpa” value was 0.40. The “nFC Cenpw” value was 0.40, the “nFC Cercam” value was 0.39 and the “nFC Ch25h” value was 0.53. The “nFC Cilp” value was 0.38, the “nFC Clcn5” value was 0.53 and the “nFC Clec4a2” value was 0.42. For the same molecule, the “nFC Clec4n” value was 0.38, the “nFC Clec5a” value was 0.45 and the “nFC Clec11a” value was 0.50. For the same molecule, the “nFC Clec12a” value was 0.53, the “nFC Col1a2” value was 0.38 and the “nFC Col8a1” value was 0.44. The “nFC Col12a1” value was 0.54, the “nFC Col15a1” value was 0.47 and the “nFC Col16a1” value was 0.53. For the same molecule, the “nFC Cotl1” value was 0.54, the “nFC Csf2rb2” value was 0.50 and the “nFC Cstb” value was 0.52. For the same molecule, the “nFC Ctsk” value was 0.51, the “nFC Ctss” value was 0.53 and the “nFC Cx3cr1” value was 0.44. For the same molecule, the “nFC Cyp7b1” value was 0.38, the “nFC Dbn1” value was 0.54 and the “nFC Dclk1” value was 0.55. The “nFC Diaph3” value was 0.46, the “nFC Dio2” value was 0.38 and the “nFC Dok2” value was 0.39. The “nFC Dut” value was 0.54, the “nFC Egr2” value was 0.54 and the “nFC Epha4” value was 0.54. For the same molecule, the “nFC F10” value was 0.46, the “nFC Fam20c” value was 0.48 and the “nFC Fbn1” value was 0.49. For the same molecule, the “nFC Fcgr1” value was 0.41, the “nFC Fcgr2b” value was 0.47 and the “nFC Fcrls” value was 0.39. For the same molecule, the “nFC Fen1” value was 0.50, the “nFC Fgf13” value was 0.38 and the “nFC Fkbp10” value was 0.42. The “nFC Fndc1” value was 0.46, the “nFC Fscn1” value was 0.43 and the “nFC Fst” value was 0.48. The “nFC Fstl1” value was 0.43, the “nFC Gas2l3” value was 0.40 and the “nFC Gm13889” value was 0.55. For the same molecule, the “nFC Gm25380” value was 0.50, the “nFC Gm42674” value was 0.44 and the “nFC Gm49339” value was 0.52. For the same molecule, the “nFC Hells” value was 0.41, the “nFC Il18bp” value was 0.52 and the “nFC Ildr2” value was 0.40. The “nFC Itm2a” value was 0.42, the “nFC Kcnn4” value was 0.41 and the “nFC Kdelr3” value was 0.42. The “nFC Kif23” value was 0.44, the “nFC Klhdc8a” value was 0.49 and the “nFC Kntc1” value was 0.38. For the same molecule, the “nFC Lair1” value was 0.53, the “nFC Lat2” value was 0.47 and the “nFC Lcn2” value was 0.52. For the same molecule, the “nFC Lgals1” value was 0.46, the “nFC Lgmn” value was 0.47 and the “nFC Lilrb4a” value was 0.54. For the same molecule, the “nFC Lmnb1” value was 0.53, the “nFC Loxl2” value was 0.53 and the “nFC Lrg1” value was 0.54. For the same molecule, the “nFC Lum” value was 0.40, the “nFC Mad2l1” value was 0.51 and the “nFC Mafb” value was 0.53. The “nFC Mark1” value was 0.42, the “nFC Mcm5” value was 0.40 and the “nFC Mdk” value was 0.40. For the same molecule, the “nFC Mfap5” value was 0.46, the “nFC Mfrp” value was 0.55 and the “nFC Mgp” value was 0.49. For the same molecule, the “nFC Mir692-1” value was 0.44, the “nFC Mmp14” value was 0.40 and the “nFC Ms4a6c” value was 0.53. The “nFC Ms4a6d” value was 0.53, the “nFC Ncapd2” value was 0.41 and the “nFC Ndnf” value was 0.55. The “nFC Nnat” value was 0.40, the “nFC Nrcam” value was 0.42 and the “nFC Nrep” value was 0.42. The “nFC P2ry6” value was 0.52, the “nFC Paox” value was 0.53 and the “nFC Pcdh7” value was 0.49. The “nFC Pdlim4” value was 0.42, the “nFC Plk4” value was 0.40 and the “nFC Polh” value was 0.55. The “nFC Ppic” value was 0.47, the “nFC Prdx4” value was 0.52 and the “nFC Psat1” value was 0.51. The “nFC Psrc1” value was 0.42, the “nFC Pth1r” value was 0.38 and the “nFC Racgap1” value was 0.43. For the same molecule, the “nFC Rcc1” value was 0.53, the “nFC Rgs4” value was 0.42 and the “nFC Rgs5” value was 0.50. The “nFC Rhof” value was 0.49, the “nFC S100a4” value was 0.42 and the “nFC S100a14” value was 0.41. For the same molecule, the “nFC Scn3b” value was 0.53, the “nFC Serpina3g” value was 0.40 and the “nFC Serpina3n” value was 0.43. The “nFC Serpine1” value was 0.51, the “nFC Serpine2” value was 0.55 and the “nFC Serpinh1” value was 0.55. The “nFC Sertad4” value was 0.39, the “nFC Sfn” value was 0.44 and the “nFC Sh2b2” value was 0.43. For the same molecule, the “nFC Slamf8” value was 0.42, the “nFC Smc2” value was 0.51 and the “nFC Snai1” value was 0.51. For the same molecule, the “nFC Spc24” value was 0.46, the “nFC St8sia6” value was 0.49 and the “nFC Tacc3” value was 0.42. The “nFC Tiam1” value was 0.49, the “nFC Tlr2” value was 0.48 and the “nFC Tnfaip8l1” value was 0.47. For the same molecule, the “nFC Tnfrsf11a” value was 0.46, the “nFC Tns4” value was 0.44 and the “nFC Traf4” value was 0.47. For the same molecule, the “nFC Tubb2b” value was 0.44, the “nFC Tyms” value was 0.49 and the “nFC Ulbp1” value was 0.48. The “nFC Vcan” value was 0.43 and the “nFC Wfdc17” value was 0.41.
